Reference: patent publication US20080031868A1, “HUMAN LYSOZYME MEDICINE, ITS MANUFACTURING METHOD AND APPLICATION THEREOF” (priority 2005, published 2008)
Marks after values point to notes of the source that are not given here.

How the values were obtained:
[1] = system: Staphylococcus aureus MRSABAA-42; experiment: Bronchus pneumonia mice infected by Staphylococcus aureus MRSA BAA-42, treated by atomization inspiring; type: in vivo; conditions: for accumulative survival number: 30 mice; for survival elevation rate (%): versus infected model group; for bacterial number: mice lung
[2] = system: Staphylococcus aureus MRSABAA-42; experiment: as above; type: in vivo; conditions: for survival rate (%): 14 days; for bacterial number: mice lung
Description: A, atomization sucks gene recombinant Human Lysozyme (HLZ) cured bronchus pneumonia mice infected by Staphylococcus aureus MRSABAA-42
Choose the test lawn, after washing with the physiological saline, correcting by McB tubes for comparative tests bacterium solution concentration 2#MCF, turbidity of 2.7×10^11 CFU/ml, diluted with physiological saline separately into 10^−1, 10^−2, 10^−3 bacterium solution, drip the nose to infect for mice respectively (anaesthetize the mice with the pentobarbital first, 30 mg/kg, ip.), 0.05 ml a mouse. Observed the mice body changing, and killed parts of mice after infecting 48 h, fetch the whole lung to tissue homogenate, 10 times diluted by physiological saline, draw 0.1 m1 to MH agar plate surface, to cultivate last night 35° C., Gram staining, test under microscope, and count plate. At the same time recorded the number of death mice, and collect some mice tracheas, bronchus, lung tissue and do pathology tissue observing.
It is called medial lethal dose (LD50) that bacterium amount caused mice appearing lung pharmacology change and 50% died. LD50was used as experimental treatment amount.
Infected mice is divided into 10 groups at random according to the weight, 30 every groups.
Designed dosage: The concentration of recombinant human lysozyme medicine was 15000 u/ml as in clinical atomization therapy. Its dose was 15000 u per time and administrated one time everyday, I.e 0.5 mg per time everyday. The dose was 1.3×10-3 mg a mice (counted by weight of 20 g). […] To ensure the breathing amount of lysozyme, the breathing time were extended for 0.5 hour. Based on 0.5 mg/ml, the concentration of 0.25 mg/ml, 1.0 mg/ml and 2.0 mg/ml were set respectively as treatment dose.
The same group mice were put into the ultrasonic atomizer and then treated with human lysozyme atomized in the compression sprayer (PARL.BOY), twice a day, 5 days in succession.
Every group, from the infected day to calculae, the animal incidence and death were recorded 14 days in succession. Every group collected 2-3 mice and killed them the 14th day after infecting, did bacteriology detection after lung homogenate, killed surplus animal to fetch the trachea, bronchus, fixed in 10% of the formaldehyde solution after weighing, did pathology check.
The bacterial culture: A part of mice were killed after infecting 24 h, fetched the whole lung weighting, added 2 ml degerming PBS solution 10 times diluted, draw 0.1 mL to MH agar plate surface, to cultivate last night 35° C., counted in the cultivation plateform of 30-300 CF, if the two close level tissue fluid is 30-300 CFU, counted the low density (make 3 plateforms at the same time each tissue fluid, calculate the average). Collected 2 mice to do bacterial culture in every group at random in 5, 7, 14 days after administration.
Pathology detection: After dissecting the mice, observed the trachea, bronchus, syncretio of lung, chest wall and membrana pleuralis, the volume of lung and size of lung focus, the lung surface was congested, hydroncus, consolidation and atelectasis by the naked eye. Took out the trachea, bronchus and the whole lung tissue to fixed with 10% of the formaldehyde solution, draw materials.

[3] = 0.25 mg/ml atomization inspired
[4] = 0.25 mg/ml atomization inspired, 14 days
[5] = 0.5 mg/ml atomization inspired, 14 days
[6] = 2 mg/ml atomization inspired, 14 days
[7] = 0.25 mg/ml atomization inspired, listed as gene recombinant human lysozyme
[8] = 0.25 mg/ml atomization inspired, listed as recombinant human lysozyme

Human lysozyme: gene recombinant Human Lysozyme (HLZ), active unit 30000 u/mg, batch number 020110; given atomized / as aerosol
average survival day (day, x ± s) [1, 3]: 9.30 ± 4.08 days
accumulative survival number [1, 4]: 12
survival rate (%) [1, 4]: 40.0%
Death number(piece) ([1]; 0.25 mg/ml atomization inspired, day 1): 0 piece
Death number(piece) ([1]; 0.25 mg/ml atomization inspired, day 2): 0 piece
Death number(piece) ([1]; 0.25 mg/ml atomization inspired, day 3): 1 piece
Death number(piece) ([1]; 0.25 mg/ml atomization inspired, day 4): 2 piece
Death number(piece) ([1]; 0.25 mg/ml atomization inspired, day 5): 3 piece
Death number(piece) ([1]; 0.25 mg/ml atomization inspired, day 6): 3 piece
Death number(piece) ([1]; 0.25 mg/ml atomization inspired, day 7): 5 piece
Death number(piece) ([1]; 0.25 mg/ml atomization inspired, day 8): 4 piece
Death number(piece) ([1]; 0.25 mg/ml atomization inspired, day 9): 0 piece
Death number(piece) ([1]; 0.25 mg/ml atomization inspired, day 10): 0 piece
Death number(piece) ([1]; 0.25 mg/ml atomization inspired, day 11): 0 piece
Death number(piece) ([1]; 0.25 mg/ml atomization inspired, day 12): 0 piece
Death number(piece) ([1]; 0.25 mg/ml atomization inspired, day 13): 0 piece
Death number(piece) ([1]; 0.25 mg/ml atomization inspired, day 14): 0 piece
survival elevation rate (%) [1, 3]: 23.3%
average survival day (day, x ± s) ([1]; 0.5 mg/ml atomization inspired): 10.3 ± 3.77***^Δ day
accumulative survival number [1, 5]: 14
survival rate (%) [1, 5]: 46.7%
Death number(piece) ([1]; 0.5 mg/ml atomization inspired, day 1): 0 piece
Death number(piece) ([1]; 0.5 mg/ml atomization inspired, day 2): 0 piece
Death number(piece) ([1]; 0.5 mg/ml atomization inspired, day 3): 0 piece
Death number(piece) ([1]; 0.5 mg/ml atomization inspired, day 4): 2 piece
Death number(piece) ([1]; 0.5 mg/ml atomization inspired, day 5): 2 piece
Death number(piece) ([1]; 0.5 mg/ml atomization inspired, day 6): 3 piece
Death number(piece) ([1]; 0.5 mg/ml atomization inspired, day 8): 5 piece
Death number(piece) ([1]; 0.5 mg/ml atomization inspired, day 9): 0 piece
Death number(piece) ([1]; 0.5 mg/ml atomization inspired, day 10): 0 piece
Death number(piece) ([1]; 0.5 mg/ml atomization inspired, day 11): 0 piece
Death number(piece) ([1]; 0.5 mg/ml atomization inspired, day 12): 0 piece
Death number(piece) ([1]; 0.5 mg/ml atomization inspired, day 13): 0 piece
Death number(piece) ([1]; 0.5 mg/ml atomization inspired, day 14): 0 piece
survival elevation rate (%) ([1]; 0.5 mg/ml atomization inspired): 30.0%
survival rate ([1]; 1 mg/ml atomization inspired, 14 days): 56.7%
average survival day (day, x ± s) ([1]; 2 mg/ml atomization inspired): 12.93 ± 2.05***^ΔΔΔ day
accumulative survival number [1, 6]: 23
survival rate (%) [1, 6]: 76.7%
Death number(piece) ([1]; 2 mg/ml atomization inspired, day 1): 0 piece
Death number(piece) ([1]; 2 mg/ml atomization inspired, day 2): 0 piece
Death number(piece) ([1]; 2 mg/ml atomization inspired, day 3): 0 piece
Death number(piece) ([1]; 2 mg/ml atomization inspired, day 4): 0 piece
Death number(piece) ([1]; 2 mg/ml atomization inspired, day 5): 0 piece
Death number(piece) ([1]; 2 mg/ml atomization inspired, day 6): 0 piece
Death number(piece) ([1]; 2 mg/ml atomization inspired, day 7): 0 piece
Death number(piece) ([1]; 2 mg/ml atomization inspired, day 9): 2 piece
Death number(piece) ([1]; 2 mg/ml atomization inspired, day 10): 1 piece
Death number(piece) ([1]; 2 mg/ml atomization inspired, day 11): 2 piece
Death number(piece) ([1]; 2 mg/ml atomization inspired, day 12): 0 piece
Death number(piece) ([1]; 2 mg/ml atomization inspired, day 13): 0 piece
Death number(piece) ([1]; 2 mg/ml atomization inspired, day 14): 0 piece
survival elevation rate (%) ([1]; 2 mg/ml atomization inspired): 60.0%
improving of survival rate and days over infected control group ([1]; 2, 1, 0.5 mg/ml, p<0.05): 30-60%
lung bacterial number ([1]; by the 14th day, basically negative): < 10 CFU/ml
The 4th day (bacterial number, head incomplete) ([1]; dose 0.5): 5.0 ± 3.0
The 5th day (bacterial number, head incomplete) ([1]; dose 0.5, the 5th day): 80.80 ± 14.28
The 4th day (bacterial number, head incomplete) ([1]; dose 1): 5.5 ± 3.2
The 5th day (bacterial number, head incomplete) ([1]; dose 1, the 5th day): 78.30 ± 17.86
The 4th day (bacterial number, head incomplete) ([1]; dose 2): 3.5 ± 2.0
The 5th day (bacterial number, head incomplete) ([1]; dose 2, the 5th day): 76.70 ± 11.60
result of pathology detection of the mice bronchus ([1]; high dose 2 mg/ml, 3rd day): bronchus moderate inflammation, mucous membrane
result of pathology detection of the mice lung tissue ([1]; high dose 2 mg/ml, 3rd day): part of alveolar wall tissue thickening, few monocaryon
result of pathology detection of the mice trachea ([1]; high dose 2 mg/ml, 3rd day): acute moderate inflammation
result of pathology detection of the mice bronchus ([1]; high dose 2 mg/ml, 7th day): bronchus moderate inflammation, intact mucous
result of pathology detection of the mice lung tissue ([1]; high dose 2 mg/ml, 7th day): normal basically
result of pathology detection of the mice trachea ([1]; high dose 2 mg/ml, 7th day): Normal basically
result of pathology detection of the mice bronchus ([1]; high dose 2 mg/ml, 14th day): Normal basically
result of pathology detection of the mice bronchus ([1]; low dose 0.5 mg/ml, 3rd day): bronchus moderate inflammation
result of pathology detection of the mice lung tissue ([1]; low dose 0.5 mg/ml, 3rd day): the disperse alveolar wall tissue gently thickening,
result of pathology detection of the mice trachea ([1]; low dose 0.5 mg/ml, 3rd day): acute hyperphlogosis
result of pathology detection of the mice bronchus ([1]; low dose 0.5 mg/ml, 7th day): bronchus moderate inflammation
result of pathology detection of the mice lung tissue ([1]; low dose 0.5 mg/ml, 7th day): the part or disperse alveolar wall tissue gently
result of pathology detection of the mice trachea ([1]; low dose 0.5 mg/ml, 7th day): acute hyperphlogosis
result of pathology detection of the mice bronchus ([1]; low dose 0.5 mg/ml, 14th day): bronchus moderate inflammation, bleeding
result of pathology detection of the mice trachea ([1]; low dose 0.5 mg/ml, 14th day): acute mild inflammation
result of pathology detection of the mice bronchus ([1]; medium dose 1 mg/ml, 3rd day): bronchus moderate inflammation, bleeding, hydroncus,
result of pathology detection of the mice lung tissue ([1]; medium dose 1 mg/ml, 3rd day): bronchiole alveolar wall tissue thickening, few
result of pathology detection of the mice trachea ([1]; medium dose 1 mg/ml, 3rd day): acute moderate inflammation
result of pathology detection of the mice bronchus ([1]; medium dose 1 mg/ml, 7th day): bronchus moderate inflammation
result of pathology detection of the mice trachea ([1]; medium dose 1 mg/ml, 7th day): acute moderate inflammation
result of pathology detection of the mice bronchus ([1]; medium dose 1 mg/ml, 14th day): bronchus moderate inflammation
result of pathology detection of the mice lung tissue ([1]; medium dose 1 mg/ml, 14th day): normal basically
result of pathology detection of the mice trachea ([1]; medium dose 1 mg/ml, 14th day): Normal basically
pharmacology histology detection of trachea, bronchus, lung tissue ([1]; mice killed on the 7th, 14th day after administration): turned to normal basically
bacterial number ([1]; atomization inspired 0.5 (15000 u/piece), the 1th day): 350.60 ± 21.5 CFU/mL
bacterial number ([1]; atomization inspired 0.5 (15000 u/piece), the 3rd day): 241.90 ± 16.62 CFU/mL
bacterial number ([1]; atomization inspired 0.5 (15000 u/piece), the 5th day): 134.60 ± 13.58 CFU/mL
bacterial number ([1]; atomization inspired 0.5 (15000 u/piece), the 14th day): 57.60 ± 15.37 CFU/mL
bacterial number ([1]; atomization inspired 1 (30000 u/piece), 0 day): 350 ± 21.5 CFU/mL
bacterial number ([1]; atomization inspired 1 (30000 u/piece), the 1th day): 254.20 ± 25.42 CFU/mL
bacterial number ([1]; atomization inspired 1 (30000 u/piece), the 3rd day): 172.70 ± 17.62**^ΔΔ CFU/mL
bacterial number ([1]; atomization inspired 1 (30000 u/piece), the 14th day): 3.5 ± 0.20 CFU/mL
bacterial number ([1]; atomization inspired 2 (60000 u/piece), the 1th day): 253.80 ± 22.88 CFU/mL
bacterial number ([1]; atomization inspired 2 (60000 u/piece), the 3rd day): 165.80 ± 16.08^ΔΔ CFU/mL
bacterial number ([1]; atomization inspired 2 (60000 u/piece), the 5th day): 76.70 ± 11.60***^ΔΔ CFU/mL
bacterial number ([1]; atomization inspired 2 (60000 u/piece), the 14th day): 2.50 ± 1.46 CFU/mL
survival rate (%) [2, 7]: 40%
survival rate (%) [2, 8]: 40%
average survival day (day, x ± s) [2, 7]: 9.30 ± 4.08 days
average survival day (day, x ± s) [2, 8]: 9.30 ± 4.08 days
Death number(piece) ([2]; 0.5 mg/ml atomization inspired, day 7): 4 piece
average survival day (day, x ± s) ([2]; 0.5 mg/ml atomization inspired, listed as gene recombinant human lysozyme): 10.3 ± 3.77 days
average survival day (day, x ± s) ([2]; 0.5 mg/ml atomization inspired, listed as recombinant human lysozyme): 3.77 ± 10.3 days
survival number ([2]; 1 mg/ml atomization inspired, 30 mice): 17
average survive days ([2]; 1 mg/ml atomization inspired, listed as gene recombinant human lysozyme): 11.2 ± 3.36 days
average survive days ([2]; 1 mg/ml atomization inspired, listed as recombinant human lysozyme): 11.23 ± 3.36 days
Death number(piece) ([2]; 2 mg/ml atomization inspired, day 8): 2 piece
average survival day (day, x ± s) ([2]; 2 mg/ml atomization inspired, listed as gene recombinant human lysozyme): 12.93 ± 2.05 days
average survival day (day, x ± s) ([2]; 2 mg/ml atomization inspired, listed as recombinant human lysozyme): 12.93 ± 2.05 days
result of pathology detection of the mice lung tissue ([2]; high dose 2 mg/ml, 14th day): normal basically
result of pathology detection of the mice trachea ([2]; high dose 2 mg/ml, 14th day): Normal basically
result of pathology detection of the mice lung tissue ([2]; low dose 0.5 mg/ml, 14th day): bronchiole alveolar wall tissue gently thickening, few
result of pathology detection of the mice lung tissue ([2]; medium dose 1 mg/ml, 7th day): few monocaryon infiltrating
bacterial number ([2]; atomization inspired 0.5 (15000 u/piece), 0 day): 350 ± 21.5 CFU/mL
bacterial number ([2]; atomization inspired 1 (30000 u/piece), the 5th day): 78.30 ± 17.86**^ΔΔ CFU/mL
bacterial number ([2]; atomization inspired 2 (60000 u/piece), 0 day): 350 ± 21.5 CFU/mL
95% feasible limits of ED50 ([2]; mice survival over 14 days, Bliss method): 200 to 900 µg/mL
ED50 (median effective dose) ([2]; mice survival over 14 days, Bliss method, atomization inspired): 530 µg/mL
